{"source": "patent US20250340593A1", "about": "“METHOD AND COMPOSITION FOR TREATING NEURODEGENERATIVE DISORDER” (priority 2022, published 2025)", "target": "T1, soluble Aβ species (monomers, LMW and HMW Aβo) (Homo sapiens, UniProt P05067)", "T1 construct": "purchased Bachem; host or cells: chemical synthesis", "T1 sequence (P05067 672-713 limits assumed)": "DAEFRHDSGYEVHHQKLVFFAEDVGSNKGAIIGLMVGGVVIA", "assay": "Western blotting of soluble Aβ species (6E10 antibody)", "format": "biochemical", "method": "Aβ preparations (1 μg) were subjected to immunoblotting analysis and separated on 4-12% gradient SDS-PAGE gels, prior to being transferred on nitrocellulose membranes. After a 45 minutes blocking step in Tris-buffered saline, 0.1% Tween, pH 7.6, 5% milk, membranes were immunoblotted overnight at 4° C. with the 6E10 anti-Ab antibody diluted in Tris-buffered saline, 0.1% Tween, pH 7.6, with 2% milk. Horseradish peroxidase (HRP)-conjugated secondary anti-mouse antibody was next applied for 1 h30 at room temperature. Proteins were visualized with an ECL detection system and band intensities quantified using a densitometric analysis with Image J software.", "key": {"[1]": {"settings": "Aβ aggregated with peptide for 24 hours, compared to the two other conditions"}}, "note": "Residues, ends and D or L forms follow the SMILES beside them."}
{"smiles": "CC(C)[C@H](NC(=O)[C@H](Cc1ccc(O)cc1)NC(=O)[C@@H](NC(=O)[C@H](CO)NC(=O)[C@H](Cc1c[nH]c2ccccc12)NC(=O)[C@H](CO)NC(=O)[C@H](CCCCN)NC(=O)[C@H](Cc1ccc(O)cc1)NC(=O)[C@H](CCCNC(=N)N)NC(=O)[C@H](CO)NC(=O)[C@H](CCCCN)NC(=O)[C@H](CCCCN)NC(=O)[C@H](CCCNC(=N)N)NC(=O)[C@@H](N)CCCCN)C(C)C)C(=O)NCC(=O)O", "note": "[BP, KRKKSRYKSWSVYVG] (H-KRKKSRYKSWSVYVG-OH; N-terminus and C-terminus assumed)", "values": [{"measurement": "fraction of LMW Aβo", "setting": "Aβ aggregated with peptide for 2 hours, compared to Aβ alone and Aβ and CP", "value": "significantly increased"}, {"measurement": "amount of HMW Aβo", "setting": "Aβ aggregated with peptide for 2 hours, compared to the Aβ alone condition", "value": "significant decrease"}, {"measurement": "LMW Aβo and Aβ monomers", "setting": "[1]", "value": "increase"}, {"measurement": "fraction of HMW Aβo", "setting": "[1]", "value": "significant decrease"}]}
